Measured values published in the Kinase Knowledgebase extract (Sharma et al. 2016).

What follows are compounds tested against MAPK14 (human) (UniProt Q16539) (assay: Inhibition of MAPK14 Kinase Activity). Conditions: not given.
Sequence of MAPK14 (human) (Q16539 whole entry, looked up): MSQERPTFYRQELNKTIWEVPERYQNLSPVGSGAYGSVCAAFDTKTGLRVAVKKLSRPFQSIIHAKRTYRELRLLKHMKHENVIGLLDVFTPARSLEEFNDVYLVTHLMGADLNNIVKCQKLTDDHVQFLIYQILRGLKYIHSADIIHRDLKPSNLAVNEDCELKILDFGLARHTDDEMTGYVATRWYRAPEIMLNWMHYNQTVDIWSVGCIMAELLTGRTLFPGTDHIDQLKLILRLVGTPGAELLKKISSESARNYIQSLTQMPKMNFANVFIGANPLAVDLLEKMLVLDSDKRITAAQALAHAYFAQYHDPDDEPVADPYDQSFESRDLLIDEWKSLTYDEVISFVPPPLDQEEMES

| Structure (SMILES) | IC50 |
| --- | --- |
| COC(=O)CCN1CCN(C(=O)c2cc(C(C)(C)C)sc2NC(=O)Nc2cccc(Cl)c2Cl)C(C)(C)C1=O | < 5 µM |
| CCc1ccccc1NC(=O)Nc1sc(C(C)(C)C)cc1C(=O)N1CCNC(=O)C1(C)C | < 5 µM |
| CC(C)(C)c1cc(NC(=O)Nc2ccc(F)c(Cl)c2Cl)c(C(=O)N2CCNS(=O)(=O)CC2)[nH]1 | < 5 µM |
| CC(C)(C)c1cc(C(=O)N2CCNC(=O)C2(C)C)c(NC(=O)Nc2cccc3c2OCO3)s1 | < 5 µM |
| CC(C)(C)c1cc(C(=O)N2CCNC(=O)C2(C)C)c(NC(=O)Nc2ccc3c(c2Cl)OCO3)s1 | < 5 µM |
| COC(=O)N1CCN(C(=O)c2cc(C(C)(C)C)sc2NC(=O)Nc2cccc(Cl)c2Cl)CC1 | < 5 µM |
| CC(C)(C)c1cc(NC(=O)Nc2cccc(Cl)c2Cl)c(C(=O)N2CCNC(=O)C2(C)C)s1 | < 5 µM |
| Cn1c(C(C)(C)C)cc(NC(=O)Nc2cccc(Cl)c2Cl)c1C(=O)N1CCNC(=O)C1(C)C | < 5 µM |
| CC1(C)C(=O)NCCN1C(=O)c1oc(C(F)(F)F)cc1NC(=O)Nc1ccc(F)c(Cl)c1Cl | < 5 µM |
| CC(C)(C)c1nc(C(=O)N2CCC(=O)N(CCN)CC2)c(NC(=O)Nc2cccc(Cl)c2Cl)s1 | < 5 µM |
| CN(C)CCN1CCN(C(=O)c2[nH]c(C(C)(C)C)cc2NC(=O)Nc2cccc(Cl)c2Cl)C(C)(C)C1=O | < 5 µM |
| CC(C)(C)c1cc(C(=O)N2CCNC(=O)CC2)c(NC(=O)Nc2ccc(F)cc2Cl)s1 | < 5 µM |
| CC(C)(C)c1cc(C(=O)N2CCNC(=O)C2(C)C)c(NC(=O)Nc2ccc(C#N)c(Cl)c2Cl)s1 | < 5 µM |
| COC(=O)c1ccc(NC(=O)Nc2sc(C(C)(C)C)cc2C(=O)N2CCNC(=O)CC2)c(Cl)c1Cl | < 5 µM |
| CCC1(C)C(=O)N(CC(=O)NCCN2CCOCC2)CCN1C(=O)c1cc(C(C)(C)C)sc1NC(=O)Nc1cccc(Cl)c1Cl (stereo not drawn) | < 5 µM |
| CC(C)(C)c1cc(C(=O)N2CCS(=O)(=O)CC2)c(NC(=O)Nc2ccc(F)c(Cl)c2Cl)s1 | < 5 µM |
| CC(C)(C)c1cc(C(=O)N2CCNC(=O)C23CC3)c(NC(=O)Nc2cccc(Cl)c2Cl)s1 | < 5 µM |
| CC(C)(C)c1cc(C(=O)N2CCNS(=O)(=O)CC2)c(NC(=O)Nc2ccc(F)c(Cl)c2Cl)s1 | < 5 µM |
| CC(C)(C)OC(=O)N1CCN(C(=O)c2cc(C(C)(C)C)sc2NC(=O)Nc2cccc(Cl)c2Cl)CC1(C)C | < 5 µM |
| Cc1noc(CN2CCN(C(=O)c3cc(C(C)(C)C)sc3NC(=O)Nc3cccc(Cl)c3Cl)C(C)(CC(N)=O)C2=O)n1 (stereo not drawn) | < 5 µM |
| Cc1noc(CC2(C)C(=O)NCCN2C(=O)c2cc(C(C)(C)C)sc2NC(=O)Nc2ccc(F)c(Cl)c2Cl)n1 (stereo not drawn) | < 5 µM |
| CC(C)(C)c1cc(C(=O)N2CCN(CCN3CCOCC3)C(=O)C2(C)C)c(NC(=O)Nc2cccc(Cl)c2Cl)s1 | < 5 µM |
| CC(C)(C)c1cc(C(=O)N2CCNCC2)c(NC(=O)Nc2cccc(Cl)c2Cl)s1 | < 5 µM |
| CC(C)(C)c1cc(C(=O)N2CCN(CC(=O)NCC3CC3)C(=O)C2(C)C)c(NC(=O)Nc2cccc(Cl)c2Cl)s1 | < 5 µM |

| Structure (SMILES) | IC50 |
| --- | --- |
| CON(C)C(=O)CC1(C)C(=O)NCCN1C(=O)c1cc(C(C)(C)C)sc1NC(=O)Nc1ccc(F)c(Cl)c1Cl (stereo not drawn) | < 5 µM |
| CC(=O)N1CCCN(C(=O)c2cc(C(C)(C)C)sc2NC(=O)Nc2cccc(Cl)c2Cl)CC1 | < 5 µM |
| CC(C)(C)c1cc(C(=O)N2CCN(CC(N)=O)C(=O)C2(C)C)c(NC(=O)Nc2cccc(Cl)c2Cl)s1 | < 5 µM |
| CC(C)(C)c1cc(C(=O)N2CCNC(=O)CC2)c(NC(=O)Nc2ccc(Cl)c(Cl)c2Cl)s1 | < 5 µM |
| COc1c(Cl)cccc1NC(=O)Nc1sc(C(C)(C)C)cc1C(=O)N1CCNC(=O)C1(C)CCO (stereo not drawn) | < 5 µM |
| CN(C)CCN1CCN(C(=O)c2cc(C(C)(C)C)sc2NC(=O)Nc2cccc(Cl)c2Cl)CC(C)(C)C1=O | < 5 µM |
| O=C(Nc1cc(C(F)(F)F)ccc1C(=O)N1CCS(=O)(=O)CC1)Nc1cccc(Cl)c1Cl | < 5 µM |
| CCCNC(=O)CN1CCN(C(=O)c2cc(C(C)(C)C)sc2NC(=O)Nc2cccc(Cl)c2Cl)C(C)(C)C1=O | < 5 µM |
| COC(=O)CN1CCN(C(=O)c2nc(C(C)(C)C)sc2NC(=O)Nc2cccc(Cl)c2Cl)C(C)(C)C1=O | < 5 µM |
| CON(C)C(=O)CN1CCN(C(=O)c2cc(C(C)(C)C)sc2NC(=O)Nc2ccc(F)c(F)c2Cl)CCC1=O | < 5 µM |
| CC(C)(C)c1cc(C(=O)N2CCCC(O)C2)c(NC(=O)Nc2cccc(Cl)c2Cl)s1 (stereo not drawn) | < 5 µM |
| CON(C)C(=O)CN1CCN(C(=O)c2[nH]c(C(C)(C)C)cc2NC(=O)Nc2cccc(Cl)c2Cl)C(C)(C)C1=O | < 5 µM |
| COc1ccc(CN2CCN(C(=O)c3cc(C(C)(C)C)sc3NC(=O)Nc3cccc(Cl)c3Cl)C(C)(C)C2=O)cc1 | < 5 µM |
| COC(=O)CN1CCN(C(=O)c2cc(C(C)(C)C)sc2NC(=O)Nc2cccc(Cl)c2Cl)CC1 | < 5 µM |
| COC(=O)CC1(C)C(=O)NCCN1C(=O)c1cc(C(C)(C)C)sc1NC(=O)Nc1cccc(Cl)c1Cl (stereo not drawn) | < 5 µM |
| CCOC(=O)C1(C)C(=O)NCCN1C(=O)c1cc(C(C)(C)C)sc1NC(=O)Nc1cccc(Cl)c1Cl (stereo not drawn) | < 5 µM |
| CN(C)CCNC(=O)CN1CCN(C(=O)c2cc(C(C)(C)C)sc2NC(=O)Nc2ccc(F)c(Cl)c2Cl)C(C)(C)C1=O | < 5 µM |
| COc1cccc(NC(=O)Nc2sc(C(C)(C)C)cc2C(=O)N2CCC(=O)N(CCN(C)C)CC2)c1Cl | < 5 µM |
| CC(C)(C)c1cc(C(=O)N2CCN(CC(=O)NO)C(=O)C2(C)C)c(NC(=O)Nc2ccc(F)c(Cl)c2Cl)s1 | < 5 µM |
| CN1CCN(C(=O)c2cc(C(C)(C)C)n(C)c2NC(=O)Nc2cccc(Cl)c2Cl)C(C)(C)C1=O | < 5 µM |
| CC(C)(C)c1cc(C(=O)N2CCNC(=O)C2)c(NC(=O)Nc2ccc3c(c2)OCO3)s1 | < 5 µM |
| CC(C)(C)c1cc(C(=O)N2CCS(=O)(=O)CC2)c(NC(=O)Cc2cccc(Cl)c2Cl)s1 | < 5 µM |
| CC(C)(C)c1cc(C(=O)N2CCNC(=O)CC2)c(NC(=O)Nc2ccc(F)c(F)c2Cl)s1 | < 5 µM |
| CC(C)(C)c1cc(C(=O)N2CCNC(=O)C2(C)C)c(NC(=O)Nc2ccccc2C(C)(C)C)s1 | < 5 µM |

| Structure (SMILES) | IC50 |
| --- | --- |
| CC(C)(C)c1cc(C(=O)N2CCNC(=O)C2(C)CCO)c(NC(=O)Nc2cccc(Cl)c2Cl)s1 (stereo not drawn) | < 5 µM |
| CN(C)CCNC(=O)CN1CCN(C(=O)c2cc(C(C)(C)C)sc2NC(=O)Nc2cccc(Cl)c2Cl)CC1 | < 5 µM |
| CC(C)(C)c1cc(C(=O)N2CCNC(=O)C2(C)C)c(NC(=O)Nc2cccnc2Cl)s1 | < 5 µM |
| CCC1C(=O)NCCN1C(=O)c1cc(C(C)(C)C)sc1NC(=O)Nc1ccc(F)c(Cl)c1Cl (stereo not drawn) | < 5 µM |
| CC(C)(C)c1cc(C(=O)N2CCN(C(=O)CCCC[C@@H]3SC[C@@H]4NC(=O)N[C@@H]43)CC2)c(NC(=O)Nc2cccc(Cl)c2Cl)s1 | < 5 µM |
| COC(=O)CN1CCN(C(=O)c2cc(C(C)(C)C)sc2NC(=O)Nc2cccc(Cl)c2Cl)C(C)(C)C1=O | < 5 µM |
| CCOC(=O)C(C)(CC)NC(=O)c1cc(C(C)(C)C)sc1NC(=O)Nc1cccc(Cl)c1Cl (stereo not drawn) | < 5 µM |
| CC(C)(C)c1cc(C(=O)N2CCNC(=O)C2(C)C)c(NC(=O)Nc2ccccc2Cl)s1 | < 5 µM |
| CC(C)(C)c1cc(C(=O)N2CCNC(=O)CC2)c(NC(=O)Nc2ccc(Cl)cc2Cl)s1 | < 5 µM |
| CC1CC(=O)NCCN1C(=O)c1cc(C(C)(C)C)sc1NC(=O)Nc1cccc(Cl)c1Cl (stereo not drawn) | < 5 µM |
| Cc1cccc(NC(=O)Nc2sc(C(C)(C)C)cc2C(=O)N2CCN(CCN(C)C)C(=O)C2(C)C)c1Cl | < 5 µM |
| CC(C)(C)c1cc(C(=O)N2CCC(=O)N(CCc3nnn[nH]3)CC2)c(NC(=O)Nc2cccc(Cl)c2Cl)s1 | < 5 µM |
| CC(C)(C)c1cc(C(=O)N2CCNC(=O)C2(C)C)c(NC(=O)Nc2cccc3ccccc23)s1 | < 5 µM |
| CCC1(C)C(=O)N(CC(=O)NCCN(C)C)CCN1C(=O)c1sc(C(C)(C)C)cc1NC(=O)Nc1cccc(Cl)c1Cl (stereo not drawn) | < 5 µM |
| CNC(=O)CN1CCN(C(=O)c2cc(C(C)(C)C)sc2NC(=O)Nc2cccc(Cl)c2Cl)C(C)(C)C1=O | < 5 µM |
| COc1ccccc1NC(=O)Nc1sc(C(C)(C)C)cc1C(=O)N1CCC(=O)N(CCN(C)C)CC1 | < 5 µM |
| CC(C)(C)c1cc(C(=O)N2CCNC(=O)C2CC(N)=O)c(NC(=O)Nc2cccc(Cl)c2Cl)s1 (stereo not drawn) | < 5 µM |
| CC(C)(C)c1cc(C(=O)N2CCNC(=O)C2(C)C)c(NC(=O)Nc2ccc(Cl)cc2Cl)s1 | < 5 µM |
| CCc1ccccc1NC(=O)Nc1sc(C(C)(C)C)cc1C(=O)N1CCN(CCN(C)C)C(=O)C1(C)C | < 5 µM |
| CC(C)(C)c1cc(C(=O)N2CCN(CC(=O)NCC(F)(F)F)C(=O)C2(C)C)c(NC(=O)Nc2cccc(Cl)c2Cl)s1 | < 5 µM |
| CC1(C)OCC(CN2CCN(C(=O)c3nc(C(C)(C)C)sc3NC(=O)Nc3cccc(Cl)c3Cl)CCC2=O)O1 (stereo not drawn) | < 5 µM |
| CC(C)(C)c1cc(NC(=O)Nc2cccc(Cl)c2Cl)c(C(=O)N2CCS(=O)(=O)CC2)o1 | < 5 µM |

Same assay, conditions: concentration not given here

| Structure (SMILES) | inhibition |
| --- | --- |
| CC(C)(C)c1cc(C(=O)N2CCNS(=O)(=O)CC2)c(NC(=O)Nc2ccc(C#N)cc2C(F)(F)F)s1 | 76 to 100% |
| CC1(C)OCC(CN2CCN(C(=O)c3cc(C(C)(C)C)sc3NC(=O)Nc3cccc(Cl)c3Cl)CCC2=O)O1 (stereo not drawn) | 76 to 100% |
| COC(=O)CC1C(=O)NCCN1C(=O)c1cc(C(C)(C)C)sc1NC(=O)Nc1ccc2ccccc2c1 (stereo not drawn) | 76 to 100% |
| CC(C)(C)c1cc(C(=O)N2CCNC(=O)CC2)c(NC(=O)Nc2ccc3ncoc3c2)s1 | 76 to 100% |
| CC(C)(C)c1cc(C(=O)N2CCNC(=O)CC2)c(NC(=O)Nc2ccc(C#N)c(Cl)c2)s1 | 76 to 100% |
| CC(C)(C)c1cc(C(=O)N2CCNC(=O)CC2)c(NC(=O)NC2CCNCC2)s1 | 0 to 25% |
| CC(C)(C)c1cc(C(=O)N2CCC(=O)N(CCC(N)=O)CC2)c(NC(=O)Nc2cccc(Cl)c2Cl)s1 | 76 to 100% |
| COCCN1CCN(C(=O)c2cc(C(C)(C)C)sc2NC(=O)Nc2cccc(Cl)c2Cl)CCC1=O | 76 to 100% |
| Cc1cccc(NC(=O)Nc2sc(C(C)(C)C)cc2C(=O)N2CCNS(=O)(=O)CC2)c1 | 76 to 100% |
| CC(C)(C)c1cc(NC(=O)Nc2cccc(Cl)c2Cl)c(C(=O)N2CCNC(=O)CC2)s1 | 76 to 100% |
| CC(C)(C)c1cc(C(=O)N2CCNS(=O)(=O)CC2)c(NC(=O)Nc2cnc(O)c3ccccc23)s1 | 26 to 50% |
| CC(C)(C)c1cc(C(=O)N2CCNS(=O)(=O)CC2)c(NC(=O)Nc2ccc(C#N)c(Cl)c2)s1 | 76 to 100% |
| CC1C(=O)NCCN1C(=O)c1cc(C(C)(C)C)sc1NC(=O)Nc1ccc2ccccc2c1 (stereo not drawn) | 76 to 100% |
